This is an account of results in US6699682B2, “Assay for inhibitors of fatty-acid amide hydrolase” (The Scripps Research Institute, priority 1995, dated 2004).

One experiment has as its target T1, recombinant rat FAAH (Rattus norvegicus, UniProt P97612).
T1 construct: expressed in transfected cells; host or cells: COS-7 cells, transient, pcDNA3; dounce-homogenised cell extract
T1 sequence (P97612 1-579): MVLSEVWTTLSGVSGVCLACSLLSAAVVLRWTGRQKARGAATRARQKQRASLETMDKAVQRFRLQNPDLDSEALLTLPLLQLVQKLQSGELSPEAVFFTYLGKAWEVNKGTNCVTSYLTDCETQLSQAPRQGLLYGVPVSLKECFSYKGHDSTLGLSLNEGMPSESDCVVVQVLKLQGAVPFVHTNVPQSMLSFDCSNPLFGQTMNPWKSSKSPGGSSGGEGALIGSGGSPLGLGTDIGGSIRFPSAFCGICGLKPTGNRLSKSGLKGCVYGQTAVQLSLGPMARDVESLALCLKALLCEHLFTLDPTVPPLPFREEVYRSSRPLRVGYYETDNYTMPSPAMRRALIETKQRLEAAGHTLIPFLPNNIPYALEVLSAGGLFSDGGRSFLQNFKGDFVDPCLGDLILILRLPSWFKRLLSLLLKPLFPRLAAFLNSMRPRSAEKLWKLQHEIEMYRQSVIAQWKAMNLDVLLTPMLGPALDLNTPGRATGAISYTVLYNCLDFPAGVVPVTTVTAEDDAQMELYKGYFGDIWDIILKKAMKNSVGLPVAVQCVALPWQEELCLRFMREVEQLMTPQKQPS
The experiment can be described thus: oleamide hydrolase activity of rat FAAH-transfected COS-7 cell extract and its inhibition (TLC). It counts as biochemical. The note with it: versus untransfected and control transfected cells. As to the method:
The following thin layer chromatography (TLC) protocol is used for assaying cis-9,10 octadecenoamide hydrolysis activity, also referred to as fatty-acid amide hydrolase activity. Oleamide is first labeled with ^14C. To accomplish this, ^14C-Oleic acid (1-10 μM, Moravek Biochemicals, 5-50 μCi/μM) in CH2CL2 (200 μL, 0.005-0.05 M) at 0° C. was treated with excess oxalyl chloride and the reaction mixture was warmed to 25° C. for 6 hours. The reaction mixture was then concentrated under a constant stream of gaseous nitrogen and the remaining residue was cooled to 0° C. and treated with excess saturated aqueous ammonium hydroxide. After 5 minutes, the reaction mixture was partitioned between Et)Ac (1.5 mL) and 10% HCl (1.0 mL). The organic layer was then washed with water (1.0 mL) and concentrated under a constant stream of gaseous nitrogen to provide ^14C-oleamide in quantitative yield as judged by TLC (60% EtOAc in hexanes; oleamide Rf−0.2; oleic acid Rf−0.8). […]
While untransfected COS-7 cells contained negligible amounts of oleamide hydrolase activity, COS-7 cells transfected with the rat FAAH cDNA expressed high levels of oleamide hydrolase activity (FIG. 15A). The assay was performed as described in Section B where by TLC the conversion of oleamide to oleic acid was assessed. […]

Experiment [1] has as its target T2, human recombinant expressed FAAH (Homo sapiens, UniProt O00519).
T2 construct: expressed in transfected cells; host or cells: COS-7 cells, transient, pcDNA3; dounce-homogenised cell extract
T2 sequence (O00519 1-579): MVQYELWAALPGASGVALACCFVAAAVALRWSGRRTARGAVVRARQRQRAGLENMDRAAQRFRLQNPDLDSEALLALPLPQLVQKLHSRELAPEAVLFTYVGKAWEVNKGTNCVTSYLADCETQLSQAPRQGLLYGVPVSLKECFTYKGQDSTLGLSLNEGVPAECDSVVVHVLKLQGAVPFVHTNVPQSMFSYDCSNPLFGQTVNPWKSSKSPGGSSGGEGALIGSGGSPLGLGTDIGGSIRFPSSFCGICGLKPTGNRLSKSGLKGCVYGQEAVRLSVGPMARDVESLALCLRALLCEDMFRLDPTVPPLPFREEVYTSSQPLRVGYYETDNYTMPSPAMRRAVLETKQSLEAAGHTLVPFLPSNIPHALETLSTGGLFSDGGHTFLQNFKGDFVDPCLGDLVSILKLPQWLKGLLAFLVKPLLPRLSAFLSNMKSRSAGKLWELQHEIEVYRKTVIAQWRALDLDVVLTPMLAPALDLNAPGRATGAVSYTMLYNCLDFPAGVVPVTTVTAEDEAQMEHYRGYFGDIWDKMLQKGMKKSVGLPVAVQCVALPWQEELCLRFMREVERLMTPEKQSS
In words: oleamide hydrolysis by COS-7 cells transfected with human oleamide hydrolase (TLC). It counts as biochemical. The note with it: versus control COS-7 cells. As to the method: For preparing the rat, mouse and human FAAH recombinant protein, the corresponding FAAH cDNAs were excised from the Bluescript II vectors and separately ligated into the eukaryotic expression vector, pcDNA3 (Invitrogen, San Diego, Calif.). 100 mm dishes of COS-7 cells were grown at 37° C. to 70% confluency in complete medium (DMEM with L-glutamine, non-essential amino acids, sodium pyruvate and fetal bovine serum). The COS-7 cells were then washed with serum-free medium and treated with 5 ml of transfection solution (5-6 μg of FAAH-pcDNA3 vector were preincubated with transfectamine (Gibco-BRL) for 30 minutes in 1 ml of serum free medium, then diluted to a final volume of 5 ml with serum free medium). The COS-7 cells were incubated at 37° C. for 5 hours, at which point 10 ml of complete medium was added to the cells and incubation was continued at 37° C. for 12 hours. The transfection solution was then aspirated away from the COS-7 cells, and the cells were incubated in a fresh batch of complete medium for another 24 hours. […]
While untransfected COS-7 cells contained negligible amounts of oleamide hydrolase activity, COS-7 cells transfected with the rat FAAH cDNA expressed high levels of oleamide hydrolase activity (FIG. 15A). The assay was performed as described in Section B where by TLC the conversion of oleamide to oleic acid was assessed.

Consider `CCCCCCCC/C=C\CCCCCCCC(N)=O` [cis-9,10-octadecenoamide, Cis-9,10-octadecenoamide], for which, at recombinant rat FAAH, the “conversion of labeled substrate by rat FAAH-transfected COS-7 cells (qualitative, TLC)” value is given as “effective at converting labeled oleamide to oleic acid”. In addition, the “conversion of oleamide to oleic acid by human FAAH-transfected COS-7 cells (qualitative, TLC)” value in experiment [1] is reported as “conversion to oleic acid is seen only in lane 2”.
